What was measured:
[1] = Storage stability of radioactive glyceryl glyphosate; type: physicochemical; conditions: radioactive compound stored at -20° C. over a period of 3 months
LBAA = assay: In vivo (3-14C-) glyceryl glyphosate hydrolysis assay in whole cells; type: cell-based; conditions: strain LBAA; three hour incubation, 30° C.
Method: (§1) Bacteria which grew in this medium using glyceryl glyphosate as a sole phosphate source had the ability to cleave both the ester and the phosphonate bond to release the free phosphate. For these bacteria to be useful in the present invention, the first step in the mineralization of glyceryl glyphosate needed is the hydrolysis of the phosphonate ester. Each of the three bacteria which utilized glyceryl glyphosate as a phosphate source were then assayed for a phosphonate monoester hydrolase activity using an in vivo (3-^14 C-) glyceryl glyphosate assay. A 150 ml culture of each bacteria was grown in DF minimal medium with 0.2 mM HK2 PO4 as a phosphate source in a 500 ml flask, 30° C., with shaking. The bacteria were pelleted by centrifugation at 5,000×g for 10 min and resuspended at 10 mg fresh weight/ml. An assay mix included 50 μl cells plus 10 μl (3-^14 C-) glyceryl glyphosate (10,000 cpm/μl) and kept at 30° C. with shaking. After a three hour incubation period, the cells were pelleted in a microfuge and the supernatant injected onto an HPLC anion exchange column and glyphosate analyzed as described above. The pellet was washed twice with 1 ml 10 mM HEPES, pH 7.0, and resuspended in 25 μl buffer. The cells were lysed with 25 μl quench and the debris pelleted in a microfuge. The pellet extract was then analyzed for glyphosate product as described above. […]

T10 = assay: as above; type: cell-based; conditions: strain T10; three hour incubation, 30° C.
Method: as §1

[2] = tested on: E. coli MM294, JM101, JM101/MPU+, SR200/MPU crude extract; assay: In vitro radioactive hydrolysis assay in crude extracts; type: biochemical; conditions: E. coli strains
From the text: (§2) The enzymatic reaction can be assayed using labelled (3-^14 C-) glyceryl glyphosate as a substrate and following the conversion to (3-^14 C-)glyphosate as a product using a high pressure liquid chromatography system with a radioactive detector. This assay is the most specific for the phosphonate monoester hydrolase enzymes useful for conditional cell lethality. An enzyme assay consists of 40,000 cpm of labelled (3-^14 C-) glyceryl glyphosate (obtained from NEN Biochemicals), the PEH sample in buffer and buffer to 100 μl final volume. The assay buffer is 10 mM Bis-Tris propane, pH 9.0, plus 100 mM KCl. The reaction is run for 1 hour at 30° C. and then stopped by the addition of 100 μl "quench" which is 100 mM sodium acetate, pH 5.5, in ethanol. The denatured protein is then spun down at 10,000 rpm in a microfuge and the supernatant transferred to an HPLC injection vial. A 100 μl aliquot is then injected onto an Synchropac AX100 anion exchange column 4.6×250 mm) pre-equilibrated in 65 mM potassium phosphate buffer, pH 5.5. The radioactive compounds are eluted isocratically for 15 min at 1 ml/min. The radioactivity of the peaks is measured and integrated by a post-column detector. Typically, the substrate elutes at 4.9 min and the product, glyphosate, at 9.7 min providing baseline separation. […] Alternatively, blank reactions can be included to determine the preexisting glyphosate contamination.
as §1

LBAA crude extract = assay: as above; type: biochemical; conditions: strain LBAA
From the text: as §2, §1

T10 crude extract = assay: as above; type: biochemical; conditions: strain T10
From the text: as §2, §1

T12 crude extract = assay: as above; type: biochemical; conditions: strain T12
From the text: as §2, §1

Structure (SMILES): O=C(O)CNCP(=O)(O)OCC(O)CO (stereo not shown) [glyceryl glyphosate, glycine, N-([hydroxy (2,3 dihydroxy propoxy)phosphonyl]methyl)]
- Storage stability [1]: unstable
- In vivo Hydrolysis of Glyceryl Glyphosate into Glyphosate (LBAA): Yes
- In vivo Hydrolysis of Glyceryl Glyphosate into Glyphosate (T10): Yes
- Hydrolysis of Glyceryl Glyphosate into Glyphosate in Crude Extracts [2]: No
- Hydrolysis of Glyceryl Glyphosate into Glyphosate in Crude Extracts (LBAA crude extract): Yes
- Hydrolysis of Glyceryl Glyphosate into Glyphosate in Crude Extracts (T10 crude extract): No
- Hydrolysis of Glyceryl Glyphosate into Glyphosate in Crude Extracts (T12 crude extract): Yes

Source: patent US5254801A, “Heterologous dominant conditional lethal gene which is a phosphonate monoester hydrolase and use thereof in plants” (Monsanto Company, priority 1990, dated 1993)
